What was measured:
[1] = system: acetylcholine-induced bronchospasm; assay: Antagonism to acetylcholine-provoked bronchospasm in anesthetized guinea pigs (Konzett and Rossler), i.v.; antiasthmatic / bronchospasmolytic activity; type: in vivo; settings: guinea pig; for ED50: Cavia porcellus, iv, 20γ acetylcholine per kg i.v., graphic extrapolation, read-out: Bronchospasmolytic ED50 against acetylcholine-induced bronchospasm
Experimental: The antiasthmatic activity was tested as the antagonism to bronchospasm provoked by intravenous administration of 20γ of acetylcholine per kg body weight in anesthetized guinea pigs (according to method of Konzett and Rossler). From the average percentage decrease of the bronchospasm produced by administering various doses of the compounds of the […] invention an ED50 was determined by graphic extrapolation. The compounds were administered intravenously.

[2] = Acute toxicity after i.v. administration in NMRI-mice (Litchfield and Wilcoxon); settings: mouse, in vivo, iv, both sexes, deaths within 14 days, read-out: LD50 in the mouse after i.v. application
Experimental: The acute toxicity was determined with NMRI-mice of both sexes (body weight 20 gm) after intravenous administration of the compound. 0.1 ml of a 0.9% sodium chloride solution per 10gm of animal was used as the vehicle.

heart rate = assay: Effect on heart rate of the anesthetized cat after intravenous administration; type: in vivo; set-up: key to type of the reaction (heart rate): --: decrease in heart rate; settings: i.v.; for ED10 (dose leading to a 10% alteration of the heart rate) / ED25 (dose leading to a 25% alteration of the heart rate): graphic extrapolation; for type of the reaction (heart rate): tested dosage range 250 - 4,000 γ/kg (A 12.5 - 16,000; W 125 - 4,000)
Experimental: The effect on the heart rate was tested on cats of both sexes (body weight between 2.3 and 3.5 kg) under chloralose-urethane anesthesia. The heart rate was continuously registered by means of a Grass-tachograph 7P4, controlled by the R-wave of the electrocardiogram. The test compound was injected through a catheter introduced into the vena femoralis.

quantity of secretion = assay: Expectorant (secretolytic) activity in anesthetized guinea pigs (Perry et al, modified by Engelhorn et al), oral; type: in vivo; settings: guinea pig, dose 0.5 γ/kg, over 2 hours
Experimental: The expectorant activity was ascertained by the method of Perry et al, J. Pharmcol. exp. Therap. 73, 65 (1941), as modified by Engelhorn et al, Arzneim. Forsch. 21, 1045 (1971), on male guinea pigs (body weight from 450 to 550 gm), which has been anesthetized by intraperitoneal injection of a 25% urethane solution (1.0 gm/kg). The test compound was administered orally at the indicated dosage levels, each in 2 ml of distilled water, by means of an esophageal tube. 5 tests per dose. The increase in secretion was calculated from the quantity of fluid secreted over a period of 2 hours after administration of the test compound, as compared to the quantity secreted without administration of the test compound.

Row | SMILES | ED50 [1] | Average duration of effective action in the ED50 range [1] | LD50 at 336 h [2] | ED10 (dose leading to a 10% alteration of the heart rate) (heart rate) | ED25 (dose leading to a 25% alteration of the heart rate) (heart rate) | type of the reaction (heart rate) (heart rate) | percent change in quantity of secretion (increase) (quantity of secretion)
1 | CC(C)N(CCCN1c2ccccc2N(C)C(=O)c2cccnc21)C(C)C.Cl [J, 6,11-dihydro-11-(3'-diisopropylamino-n-propyl)-6-methyl-5H-pyrido[2,3-b][1,5]benzodiazepin-5one hydrochloride] | 0.0165 mg/kg | 50 min | 22.6 mg/kg | 1,950 γ/kg | > 4,000 γ/kg | -- | 108%
2 | CCN(CCCN1c2ccccc2N(C)C(=O)c2cccnc21)C(C)C.Cl [K, 11-[3'-(n-ethyl-N-isopropyl-amino)-n-propyl]-6,11-dihydro-6-methyl-5H-pyrido[2,3-b][1,5]benzodiazepin-5-one hydrochloride] | 0.02 mg/kg | > 80 min | 30 mg/kg | 1,350 γ/kg | > 4,000 γ/kg | -- | 113%

Reference: patent US4021557A, “11-Aminoalkyl-pyridobenzodiazepinones and salts thereof” (Boehringer Ingelheim GmbH, priority 1974, dated 1977)
